No end group written: not given here.

What all share (format): cell-based
Assay [1] has as its system Bacillus subtilis (ATCC 62037). The conditions noted are these: ATCC 62037, 12 h. The procedure, abridged: (§1)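 Inoculum: exponential-phase cells (2 h subculture after overnight growth), 10^5 per 1 ml. Media/temperature: TSB, 37° C for bacteria; SAB, 30° C for fungi. Peptides added as serial dilutions; microdilution MIC.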
For assay [2], the system named is Candida albicans (ATCC 10231). Conditions: ATCC 10231, 12 h. The procedure, abridged:
as §1

The subject of assay [3] is Cryptococcus neoformans (ATCC 34881). Conditions: ATCC 34881, 12 h. The procedure, abridged: as §1
In assay [4] the test system is Escherichia coli (ATCC 27325). The conditions noted are these: ATCC 27325, 12 h. The procedure, abridged:
as §1

The subject of assay [5] is Pseudomonas putida (ATCC 17426). The conditions noted are these: ATCC 17426, 12 h. The procedure, abridged:
as §1

The subject of assay [6] is Saccharomyces cerevisiae (ATCC 44774). Conditions: ATCC 44774, 12 h. The procedure, abridged: as §1
The test system of assay [7] is Salmonella enteritidis (ATCC 15277). Conditions: ATCC 15277, 12 h. The procedure, abridged: as §1
In assay [8] the test system is Staphylococcus aureus (ATCC 15752). The conditions noted are these: ATCC 15752, 12 h. The procedure, abridged:
as §1

Assay [9] deals with Streptococcus mutans (ATCC 25175). The conditions noted are these: ATCC 25175, 12 h. The procedure, abridged: as §1

As for RVLKQWPIGRVLKRVLKRVLK [compound 13], the “Minimum Inhibitory Concentration” value amounted to 2 µg/mL in [1]; 1 µg/mL in [2]; 1 µg/mL in [3]; 1 µg/mL in [4]; 1 µg/mL in [5]; 2 µg/mL in assay [6]. Also, the “Minimum Inhibitory Concentration” value in assay [7] turned out to be 1 µg/mL; in [8], 1 µg/mL; in assay [9], 2 µg/mL.
Regarding RVLKRVLKRVLKNWPIGRVLK-NH2 [compound 72], the “Minimum Inhibitory Concentration” value in assay [1] turned out to be 1 µg/mL; in assay [2] it was 1 µg/mL; in assay [3] it was 1 µg/mL; in assay [4], 1 µg/mL; in assay [5] it was 1 µg/mL; in assay [6], 2 µg/mL. Also, the figures for the “Minimum Inhibitory Concentration” value in [7], in assay [8] and in assay [9] were 1 µg/mL, 1 µg/mL and 2 µg/mL, respectively.
For RVLKRVLKRVLKQWPIGRVLK [compound 47], the “Minimum Inhibitory Concentration” value is 1 µg/mL in assay [1]; 1 µg/mL in [2]; 1 µg/mL in [3]; 1 µg/mL in [4]; 1 µg/mL in assay [5]; 2 µg/mL in assay [6]. Besides, the “Minimum Inhibitory Concentration” value is 1 µg/mL in assay [7], 1 µg/mL in assay [8] and 2 µg/mL in assay [9].
Regarding RVLRQWPIGRVLRRVLRRVLR [compound 5], the “Minimum Inhibitory Concentration” value in assay [1] came to 1 µg/mL; in assay [2], 1 µg/mL; in assay [3], 1 µg/mL; in assay [4] it was 1 µg/mL; in [5] it was 1 µg/mL; in assay [6], 2 µg/mL. Besides, the “Minimum Inhibitory Concentration” value in assay [7], in assay [8] and in assay [9] was 1 µg/mL each time.
As to RVLRRVLRRVLRQWPIGRVLR [compound 39], the “Minimum Inhibitory Concentration” value in [1] is 2 µg/mL; in assay [2] it was 2 µg/mL; in [3] it was 1 µg/mL; in assay [4], 1 µg/mL; in assay [5], 1 µg/mL; in assay [6], 2 µg/mL. Moreover, the “Minimum Inhibitory Concentration” value in [7] amounted to 1 µg/mL; in [8] it was 2 µg/mL; in assay [9] it was 2 µg/mL.
In the case of RVVKNWPIGRVVKRVVKRVVK [compound 26], the “Minimum Inhibitory Concentration” value in assay [1] was 1 µg/mL; in [2] it was 2 µg/mL; in [3] it was 1 µg/mL; in [4], 2 µg/mL; in assay [5], 1 µg/mL; in assay [6], 2 µg/mL. Also, the “Minimum Inhibitory Concentration” value in assay [7], in [8] and in assay [9] was 1 µg/mL throughout.
As to RVVKRVVKRVVKNWPIGRVVK [compound 60], the “Minimum Inhibitory Concentration” value turned out to be 1 µg/mL in assay [1]; 1 µg/mL in assay [2]; 1 µg/mL in assay [3]; 2 µg/mL in assay [4]; 1 µg/mL in [5]; 1 µg/mL in assay [6]. The “Minimum Inhibitory Concentration” value in assay [7], in assay [8] and in [9] was 2 µg/mL in each case.

(Values after patent US7348402B2, “Antimicrobial peptide, its analogs and antimicrobial composition comprising them” (priority 2002, dated 2008).)
